US20220087951A1, “USE OF CANNABINOIDS IN THE TREATMENT OF EPILEPSY” (GW RESEARCH LIMITED, priority 2020, published 2022)

Legend:
[1] = Solubility of the drug substance in water; type: physicochemical
[2] = system: seizures in children and young adults with Dravet Syndrome and Lennox-Gastaut Syndrome; assay: Example 1: primary seizure count during baseline and by cumulative day in the treatment period, CBD vs placebo added to baseline AED regimen; type: in vivo, human; conditions: for Ratio to Baseline (number of seizures with treatment to number of seizures at baseline): 5 mg/kg/day starting dose, negative binomial regression of primary seizure count; for percent change in number of seizures compared to baseline: 5 mg/kg/day, positive = decrease in seizures
Procedure: Children and young adults with Dravet Syndrome Lennox-Gastaut Syndrome were administered a highly purified extract of cannabidiol (CBD) obtained from a cannabis plant or placebo.
The highly purified CBD extract (greater than 98% CBD w/w) was administered in a formulation described herein at a starting dose of 5 mg/kg/day in addition to their baseline anti-epileptic drug (AED) regimen.
The starting dose increase from 5 mg/kg/day to 10 mg/kg/day after one week of administering the first dose of CBD. […] The titration period occurred over two weeks. The starting dose was expected to minimize side effects, and not intended to achieve efficacy.
All patients were taking at least two concomitant anti-epileptic drugs. These included clobazam; levetiracetam; topiramate; stiripentol; phenobarbital; lacsamide; valproic acid; zonisamide.
(§1) Prior to treatment with CBD, patients recorded the number of seizures they experienced. This established the baseline levels. During the course of treatment, patients recorded the number of seizures experienced each day.
The ratio in Table 9 is defined as the number of seizures with treatment to the number of seizures at baseline (e.g., before treatment). The percentage defines the percent change in number of seizures compared to baseline. Positive percentages reflect a decrease in the number of seizures compared to baseline, and negative percentages reflect an increase in number of seizures compared to baseline. The ratio to baseline of patients administered CBD extract includes data from patients treated with a maximum of 10 mg/kg/day or 20 mg/kg/day CBD extract. However, the amount of CBD administered to each treatment arm (10 mg/kg/day and 20 mg/kg/day) over the first 7 days of the study is the same.

[3] = system: seizures in patients with Tuberous Sclerosis Complex (TSC); assay: Example 2: mean total seizures over time of TSC patients after administration of CBD (FIG. 2); type: in vivo, human
Procedure: Patients with TSC were administered a highly purified extract of cannabidiol (CBD) obtained from a cannabis plant described herein. Similar to Example 1, patients with a TSC diagnosis were administered a starting dose of 5 mg/kg/day CBD in addition to their baseline anti-epileptic drug (AED) regimen or placebo.
The daily dose was increased by 5 mg/kg increments until intolerance occurred or a maximum dose of 25 mg/kg/day was achieved. The starting dose increase from 5 mg/kg/day to 10 mg/kg/day occurred 7 days after administration of the first dose of CBD. […] The titration period occurred over two weeks. For patients in need of further seizure reduction, the dosage of 20 mg/kg/day was increased up to 25 mg/kg/day after one week.
All patients were taking at least two concomitant anti-epileptic drugs. These included clobazam; levetiracetam; topiramate; stiripentol; phenobarbital; lacsamide; valproic acid; zonisamide. The average number of concomitant antiepileptic drugs being taken was 2.7. The majority took either clobazam and/or valproic acid.
as §1

## C=C(C)[C@@H]1CCC(C)=C[C@H]1c1c(O)cc(CCCCC)cc1O [CBD, Cannabidiol]
[1]
  solubility in water: insoluble in water
[2]; Day 1
  Ratio to Baseline (number of seizures with treatment to number of seizures at baseline): 0.958
  percent change in number of seizures compared to baseline: [4.2%]
[2]; Dravet/Lennox-Gastaut patients, starting dose 5 mg/kg/day
  onset of seizure reduction: within one week
[2]; First 2 Days
  Ratio to Baseline (number of seizures with treatment to number of seizures at baseline): 0.907
  percent change in number of seizures compared to baseline: [9.3%]
[2]; First 3 Days
  Ratio to Baseline (number of seizures with treatment to number of seizures at baseline): 0.882
  percent change in number of seizures compared to baseline: [11.8%]
[2]; First 4 Days
  Ratio to Baseline (number of seizures with treatment to number of seizures at baseline): 0.831
  percent change in number of seizures compared to baseline: [16.9%]
[2]; First 5 Days
  Ratio to Baseline (number of seizures with treatment to number of seizures at baseline): 0.793
  percent change in number of seizures compared to baseline: [20.7%]
[2]; First 6 Days
  Ratio to Baseline (number of seizures with treatment to number of seizures at baseline): 0.742
  percent change in number of seizures compared to baseline: [25.8%]
[2]; First 7 Days
  Ratio to Baseline (number of seizures with treatment to number of seizures at baseline): 0.717
  percent change in number of seizures compared to baseline: [28.3%]
[2]; after 4 days of treatment
  reduction in seizures compared to baseline: significant reduction in seizures
[2]; from within 4 days of treatment, 5 mg/kg/day CBD
  reduction of seizures: > 15%
[2]; starting dose 5 mg/kg/day
  time to seizure reduction after administration of starting dose: ≤ 4 days
[3]; after 4 days of treatment
  reduction in seizures compared to baseline: significant reduction in seizures
[3]; starting dose 5 mg/kg/day
  onset of seizure reduction: within one week
  time to seizure reduction after administration of starting dose: ≤ 4 days
[3]; titration period, starting dose 5 mg/kg/day
  mean total seizures over time (FIG. 2): starts decreasing during the titration period
